Patent US20070167474A1, “Use of opioid receptor antagonist compounds for the prevention and/or treatment of diseases associated with the target calcineurin” (priority 2004, published 2007)
Where a name gives a salt, the structure may show the parent alone.

How the values were obtained:
[1] = test system: Interleukin-2 (IL-2) production on spleen cells in the MLR; test: Measurement of interleukin-2 production in MLR (mixed lymphocyte reaction); assay type: cell-based, mice; settings: 48 h culture, ELISA
Description: Measurement of Interleukin-2 Production in MLR (Mixed Lymphocyte Reaction)
Measurement of interleukin-2 production in MLR was performed according to the described procedure (Gaveriaux-Ruff et al., J. Pharmacol. Exper. Ther. 298, 1193, 2001).
Splenocytes from mice were cultured with allogeneic stimulators (mitomycin treated BALB/c spleen cells).

[2] = target: calcineurin (Homo sapiens, UniProt Q08209); test: Calcineurin inhibition assay; assay type: biochemical; settings: compound at a concentration of 20 μM
Description: Calcineurin Inhibition Assays
Calcineurin inhibition assay was performed according to a described procedure (R. Baumgrass et al., J. Biol. Chem. 276, 47914, 2001).
Calcineurin inhibition was measured in a concentration range of 1-50 μM of the test compound at optimal Ca^2+ and calmoduline concentrations. The calcineurin/compound mixtures were equilibrated in the assay buffer (40 mM Tris-HCl, pH 7.5, 100 mM NaCl, 6 mM MgCl2, 0.5 mM ditiothreitol, 1 mM CaCl2, 0.1 mg/ml bovine serum albumin) at 22° C. for 30 min. Calcineurin activity was referenced to the assay lacking the test compounds. The data were computed with the SigmaPlot program.

calcineurin, sequence (P63098 2-170, other chains not shown): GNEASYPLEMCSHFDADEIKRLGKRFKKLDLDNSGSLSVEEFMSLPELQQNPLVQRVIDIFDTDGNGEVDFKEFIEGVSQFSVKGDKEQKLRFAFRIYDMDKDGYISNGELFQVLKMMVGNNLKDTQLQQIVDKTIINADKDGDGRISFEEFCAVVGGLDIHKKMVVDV

Structure (SMILES) | IL-2 ([1]; 10 μM compound) | Calcineurin activity (% of control) [2] | further results
CCOC12Cc3c([nH]c4ccccc34)C3(C)Oc4c(O)ccc5c4C31CCN(CC1CC1)C2C5 (stereo not drawn) [HS 378, 17-(Cyclopropylmethyl)-6,7-dehydro-4,5α-epoxy-14ethoxy-3-hydroxy-5-methyl-6,7-2′,3′-indolomorphinan Hydrochloride] | 31 ± 3 pg/mL | – | IL-2 ([1]; 2 μM compound): 49 ± 7 pg/mL; IL-2 ([1]; 20 μM compound): 22 ± 2 pg/mL
Cl.Oc1ccc2c3c1OC1c4[nH]c5ccccc5c4CC4(OCc5ccccc5-c5ccccc5)C(C2)N(CC2CC2)CCC314 (stereo not drawn) [HS 882, 17-(Cyclopropylmethyl)-6,7-didehydro-4,5α-epoxy-14β-[(2-phenylbenzyl)oxy]indolo[2′,3′:6,7]morphinan-3-ol Hydrochloride] | – | 49 % of control | –
CC(C)(C)c1ccc(COC23Cc4c([nH]c5ccccc45)C4Oc5c(O)ccc6c5C42CCN(CC2CC2)C3C6)cc1.Cl (stereo not drawn) [HS 884, 14β-[(4-tert.-Butylbenzyl)oxy]-17-(cyclopropylmethyl)-6,7-didehydro-4,5α-epoxyindolo[2′,3′:6,7]morphinan-3-ol Hydrochloride] | – | 65 % of control | –
Oc1ccc2c3c1OC1c4[nH]c5ccccc5c4CC4(OCCCc5ccccc5)C(C2)N(CC2CC2)CCC314 (stereo not drawn) [HS 894, 17-(Cyclopropylmethyl)-6,7-didehydro-4,5α-epoxy-14β-[(3-phenylpropyl)oxy]indolo[2′,3′:6,7]morphinan-3-ol] | – | 30 % of control | –
Oc1ccc2c3c1O[C@H]1c4[nH]c5ccccc5c4C[C@@]4(O)[C@@H](C2)N(CC2CC2)CC[C@]314 [Naltrindole, reference compound] | 29 ± 6 pg/mL | – | IL-2 ([1]; 3 μM compound): 66 ± 18 pg/mL; IL-2 ([1]; 30 μM compound): 19 ± 5 pg/mL
